From the supplement of paper PMC10307832

Experiments:
Test in all cases: relative viability (nuclei count vs DMSO), 5 days (fraction); higher = more cells survive
[1] = compound: COC1=CC(c2cc3ccccc3[nH]2)=N/C1=C\c1[nH]c(C)cc1C [Obatoclax] + CS(=O)(=O)CCNCc1ccc(-c2ccc3ncnc(Nc4ccc(OCc5cccc(F)c5)c(Cl)c4)c3c2)o1 [Lapatinib] (partner 2 µM)
Procedure, shortened: (§1)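 Each reported value is a median over duplicate plates. It expresses relative viability: treated-well nuclei count divided by vehicle-well nuclei count. Lung cancer cell lines in 1536-well plates were dosed by pin tool a day after seeding, alone with one drug or with a fixed anchor-drug dose plus five library-drug doses (not always all listed) in √10 steps, and nuclei were counted after 5 days.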

[2] = compound: COC1=CC(c2cc3ccccc3[nH]2)=N/C1=C\c1[nH]c(C)cc1C [Obatoclax] + N=C(N)NC(=N)NCCc1ccccc1 [Phenformin] (partner 250 µM)
Procedure, shortened: as §1

[3] = compound: CC(C)C[C@H](NC(=O)[C@H](Cc1ccccc1)NC(=O)c1cnccn1)B(O)O [Bortezomib] + Cc1nc(NC(=O)N2CCC[C@H]2C(N)=O)sc1-c1ccnc(C(C)(C)C(F)(F)F)c1 [Alpelisib] (partner 2 µM)
Procedure, shortened: as §1

[4] = compound: CC1=CC(=NN1)NC2=CC(=NC(=N2)/C=C/C3=CC=CC=C3)N4CCN(CC4)C + COc1cc2c(Oc3ccc(NC(=O)C4(C(=O)Nc5ccc(F)cc5)CC4)cc3F)ccnc2cc1OCCCN1CCOCC1 [Foretinib] (partner 0.25 µM)
Procedure, shortened: as §1

Cell Line	relative viability ([1]; first compound 0.01 µM)	relative viability ([1]; first compound 0.03162 µM)	relative viability ([1]; first compound 0.1 µM)	relative viability ([1]; first compound 0.3162 µM)	relative viability ([1]; first compound 1 µM)	relative viability ([2]; first compound 0.01 µM)	relative viability ([2]; first compound 0.03162 µM)	relative viability ([2]; first compound 0.1 µM)	relative viability ([2]; first compound 0.3162 µM)	relative viability ([2]; first compound 1 µM)	relative viability ([3]; first compound 0.0002 µM)	relative viability ([3]; first compound 0.000632 µM)	relative viability ([3]; first compound 0.002 µM)	relative viability ([3]; first compound 0.006325 µM)	relative viability ([3]; first compound 0.02 µM)	relative viability ([4]; first compound 0.08 µM)	relative viability ([4]; first compound 0.253 µM)	relative viability ([4]; first compound 0.8 µM)	relative viability ([4]; first compound 2.53 µM)	relative viability ([4]; first compound 8 µM)
201T	1.08	0.789	0.94	1.01	0.97	0.434	0.457	0.43	0.399	0.463	1.03	0.993	0.975	0.951	0.31	1.13	1.32	1.04	1.02	0.206
A549	0.933	1.1	0.997	0.966	0.125	0.131	0.248	0.035	0.222	0.0807	0.769	0.706	0.756	0.055	0.0365	1.03	0.914	0.616	0.0324	0.0167
A-427	1.08	0.884	1.03	1.09	0.992	0.339	0.342	0.32	0.287	0.165	0.991	1.03	1.05	1.11	0.0762	0.993	1.06	0.993	0.586	0.142
ABC-1	0.87	1.15	1.25	1.04	1.33	0.226	0.215	0.291	0.22	0.297	1	1.08	0.372	0.233	0.245	1.01	1.13	0.956	0.195	0.228
BEN	0.726	0.696	0.305	0.792	0.698	0.287	0.224		0.286	0.277	0.925	1.09	0.72	0.614	0.154	0.639	0.675	0.715	0.377	0.182
CAL-12T	0.609	0.733	0.755	0.392	0.287	0.552	0.612	0.538	0.155	0.102	1.26	1.05	1.11	0.175	0.115	1.09	1.17	0.908	0.293	0.162
COR-L23	0.954	0.957	0.714	0.254	0.199	0.443	0.479	0.425	0.328	0.216	0.825	0.698	0.444	0.0416	0.0432	0.967	1.01	0.904	0.211	0.107
COR-L 105	0.368	0.318	0.369	0.294	0.252	0.4	0.53	0.637	0.333	0.266	0.911	1.04	0.909	0.237	0.227	0.841	1.47	1.02	0.334	0.215
Calu-6	1.03	1.09	1.04	0.842	0.244						0.961	1.01	1.04	0.123	0.0909	0.879	0.942	0.519	0.167	0.0898
ChaGo-K-1						0.511	0.506	0.444	0.462	0.527						0.952	0.915	0.79	0.353	0.186
EBC-1	0.204	0.213	0.227	0.182	0.189						0.869	0.727	0.29	0.126	0.0969	0.107	0.115	0.103	0.106	0.0799
EKVX	0.208	0.19	0.215	0.199	0.189	0.257	0.218	0.141	0.232	0.231	0.94	0.934	0.932	0.733	0.0816	0.761	0.786	1.14	0.504	0.213
EMC-BAC-2	0.878	0.908	0.886	0.74	0.897	0.478	0.526	0.398	0.466	0.371	0.657	0.73	0.788	0.17	0.117	0.957	1.04	0.936	0.534	0.234
EPLC-272H	0.942	0.909	0.458	0.913	0.883	0.255	0.277	0.351	0.225	0.158			1.09	0.943	0.115	0.639	0.708	0.4	0.171	0.0935
H3255	0.51	0.244	0.327	0.256	0.315	0.306	0.377	0.372	0.335	0.42	0.688	0.696	0.479	0.156	0.163	0.799	1.1	0.822	0.756	0.631
HARA	0.816	0.752	0.667	0.69	0.297	0.427	0.432	0.463	0.455	0.357	0.808	0.673	0.949	0.0583	0.0865	0.932	0.909	0.794	0.098	0.0593

Cell Line	relative viability ([1]; first compound 0.01 µM)	relative viability ([1]; first compound 0.03162 µM)	relative viability ([1]; first compound 0.1 µM)	relative viability ([1]; first compound 0.3162 µM)	relative viability ([1]; first compound 1 µM)	relative viability ([2]; first compound 0.01 µM)	relative viability ([2]; first compound 0.03162 µM)	relative viability ([2]; first compound 0.1 µM)	relative viability ([2]; first compound 0.3162 µM)	relative viability ([2]; first compound 1 µM)	relative viability ([3]; first compound 0.0002 µM)	relative viability ([3]; first compound 0.000632 µM)	relative viability ([3]; first compound 0.002 µM)	relative viability ([3]; first compound 0.006325 µM)	relative viability ([3]; first compound 0.02 µM)	relative viability ([4]; first compound 0.08 µM)	relative viability ([4]; first compound 0.253 µM)	relative viability ([4]; first compound 0.8 µM)	relative viability ([4]; first compound 2.53 µM)	relative viability ([4]; first compound 8 µM)
HCC-15	0.854	0.801	0.747	0.723	0.581	0.486	0.432	0.348	0.438	0.327	0.845	0.911	0.833	0.307	0.0846	1.06	1.11	0.839	0.196	0.0908
HCC-44	1.08	0.891	0.955	0.876	0.37	0.268	0.185	0.0802	0.14	0.111	0.831	0.776	0.84	0.0994	0.115					
HCC-78	0.937	0.64		0.579	0.844	0.8	0.634	0.868	0.642	0.67	0.331	0.359	0.258	0.136	0.148	0.582	0.666	0.54	0.492	0.233
HCC-366	1.02	1.05	0.921	0.636	0.379	0.581	0.565	0.657	0.628	0.478	0.467	0.316	0.409	0.339	0.0134	0.942	1.04	0.472	0.0589	0.0265
HCC-827	0.183	0.195	0.226	0.229	0.271	0.424	0.409	0.46	0.373	0.435	1.12	0.948	0.8	0.149	0.126	1.08	1.02	0.993	0.581	0.239
IA-LM	0.631	0.872	0.454	0.135	0.114						0.773	0.669	0.561	0.0626	0.0159	1.07	1.05	0.906	0.601	0.103
LCLC-103H						0.317	0.28	0.327	0.321	0.34	0.955	0.893	1.02	1.07	0.166	0.76	0.93	0.639	0.305	0.154
NCI-H441						0.664	0.79	0.771	0.614	0.475	0.613	0.58	0.19	0.132	0.111	1.16	0.649	1.18	0.384	0.177
NCI-H522						0.614	0.62	0.633	0.688	0.603										
NCI-H1299	0.911	0.977	0.932	0.881	0.308						1.02	1.07	1.08	0.89	0.304	1.04	1.06	1.1	0.4	0.186
NCI-H1623						0.626	0.578	0.515	0.598	0.568						0.817	0.94	0.886	0.803	0.533
NCI-H1650	0.849	0.657	0.698	0.418	0.302	0.429	0.427	0.494	0.449	0.295						1.07	1.4	1.33	0.153	0.133
NCI-H1703	1	1.46	1.1	0.437	0.405						0.32	0.256	0.131	0.134	0.0835	0.331	0.362	0.291	0.209	0.211
NCI-H1792	0.945	0.796		0.869	0.885	0.371			0.176	0.0627	0.576	0.646	0.579	0.714	0.319					
NCI-H2342						0.744	0.573	0.737	0.48	0.584						0.918	1.06	1.14	1.01	0.578
SW 900						0.556	0.584	0.726	0.493	0.325						0.845	0.831	0.871	0.605	0.118
